What was measured:
[1] = test system: human B-cell lymphoma (Daudi) xenograft; experiment: Daudi xenograft model: IL-2 with CHOP and individual CHOP constituents (Example 2); assay type: in vivo, BALB/c nude mice; conditions: for Median Tumor Growth delay / Response rate (CR/PR): CR / Response rate (CR/PR): PR: Table 9, n = 10-20 mice/group; for CR/PR on day 28: CR: number of mice with complete response; for CR/PR on day 28: PR: number of mice with partial response; for Group Mean Days of Delay to 1000 mm^3: vs. control group
Procedure: (§1) Passaged, clonally derived Daudi cells (5×10^6 cells/mouse) were reconstituted with 50% Matrigel (BD Biosciences) in a total volume of 0.1 ml and implanted subcutaneously into the right flank of irradiated (3Gy) BALB/c nude mice. Treatments were initiated when the mean tumor volume was 150-300 mm^3. Mice were randomly assigned typically into 10 mice per group. […] Tumor volume is measured using calipers. Caliper measurements of tumors were converted into tumor volume (mm^3) using the formula: ½ (length (mm)×[width (mm)]^2). Tumor growth inhibition (TGI) was calculated as [1−(mean tumor volume of treated group/mean tumor volume of control group)×100]. […] Tumor growth delay (TGD) analysis was calculated as: [(number of days for a treated group to reach a mean tumor volume of 1000 mm^3)−(number of days for the control group to reach a mean tumor volume of 1000 mm^3)]. Percent conditional survival is the percent of mice in each group in which the tumor volume has not reached 1000 mm^3.
Athymic nude BALB/c mice (10 mice/group) were acclimated and irradiated mice were implanted with Daudi cells as described above. Treatment started when tumors were approximately 140 mm^3. This was designated study day 1.
Treatment groups were as follows:
Doxorubicin (H, adriamycin), 3.3 mg/kg, i.v, day 1;
Vincristine (O), 0.5 mg/kg, i.v, day 1;
Prednisone (P), 0.2 mg/kg p.o, days 1-5;
Proleukin® (IL-2), 1 mg/kg; s.c., thrice weekly for 4 weeks, total 12 doses;
Proleukin® (IL-2)+individual chemotherapeutics (as dosed individually, started on day 1);
Proleukin® (IL-2)+CHOP (similar dosing regimens to single agents, started on day 1).

[2] = test system: Daudi lymphoma tumor model; experiment: Pooled Daudi xenograft studies and assessment of synergistic activity (Example 5); assay type: in vivo, BALB/c nude mice; conditions: pooled studies; for Tumor response CR / Tumor response PR: number of mice, (n) in cell; for Tumor response RR: response rate; for TGI: vs. vehicle
Procedure: as §1
(§2) Multiple comparisons were performed using one-way analysis of variance (ANOVA); post-test to compare different treatment means was done using Student-Newman Keuls test (SigmaStat). Tumor growth delay for each animal (time to 1000 mm^3) was used as the endpoint for conditional survival, and significance between treatments was analysed using a log rank test (Prism). Mice that had no visible tumors at necropsy upon termination of the study were considered censored in this analysis. Differences were considered statistically significant at p<0.05.
Several studies of these agents and combinations of these agents were performed in the Daudi lymphoma tumor model. The data from these multiple experiments were then pooled together for further analysis (Table 10). In vivo drug synergy was evaluated from the response index of combination treatments using multiple drug effect analyses.

[3] = test system: human B-cell lymphoma (Daudi) xenograft; experiment: Daudi xenograft model of human B-cell lymphoma: IL-2/CHOP/rituximab regimens (Example 1); assay type: in vivo, BALB/c nude mice
Procedure: as §1, §2
See, e.g., Hudson et al., Leukemia (1998) 12:2029-2033 for a description of the Daudi xenograft model. The Daudi/BALB/c nude model expresses high levels of CD20 and is associated with a less aggressive/low grade disease profile. Furthermore, NK cells cannot lyse Daudi tumor cells in the absence of activation by cytokines such as IL-2. See, e.g., Damle et al., J. Immunol. (1987) 138:1779-1785.
120 athymic nude BALB/c mice were acclimated for 1 week to the inoculation of Daudi human B-cell lines. Daudi cells (5×10^6 cells/mouse) were implanted s.c. (right flank) into irradiated young nude mice (3Gy for approximately 3.2 minutes) with 50% matrigel at a volume of 0.1 ml and grown as subcutaneous tumors until tumor volume reached 110 mm^3. This was designated study day 1.
Clinical observations were noted.

[4] = mouse, in vivo
Procedure: (§3) Proleukin® treatment (1 mg/kg; s.c., thrice weekly) commenced either concomitantly (on day 8) or one week later (day 15) for a total of 4 weeks. […] Tumor volumes and body weights were measured two times per week. Clinical observations were noted.

[5] = Body weight, clinical observations and tolerability in Daudi tumor-bearing mice; conditions: Example 5
Procedure: as §3

Molecule | Median Tumor Growth delay [1] | Response rate (CR/PR): CR [1] | Response rate (CR/PR): PR [1] | CR/PR on day 28: CR [1] | CR/PR on day 28: PR [1] | Group Mean Days of Delay to 1000 mm^3 [1] | Growth delay [2] | Tumor response CR [2] | Tumor response PR [2] | Tumor response RR [2] | TGI [2] | further results
O=P1(N(CCCl)CCCl)NCCCO1 (stereo not drawn) [Cyclophosphamide, cyclophosphamide] | 1 days | 0/0 | 0/0 | 0/0 | 0/0 | 1 days | 1 days | 0%; 0/0 (10) | 0%; 0/0 (10) | 0%; 0/0 (10) | 2%, p > 0.05 | –
COc1cccc2c1C(=O)c1c(O)c3c(c(O)c1C2=O)C[C@@](O)(C(=O)CO)C[C@@H]3O[C@H]1C[C@H](N)[C@H](O)[C@H](C)O1 [Doxorubicin] | 2 days | 0/0 | 0/0 | 0/0 | 0/0 | 2 days | 2 days | 0%; 0/0 (10) | 0%; 0/0 (10) | 0%; 0/0 (10) | 9%, p > 0.05 | –
CC[C@]1(O)C[C@H]2CN(CCc3c([nH]c4ccccc34)[C@@](C(=O)OC)(c3cc4c(cc3OC)N(C=O)[C@H]3[C@@](O)(C(=O)OC)[C@H](OC(C)=O)[C@]5(CC)C=CCN6CC[C@]43[C@@H]65)C2)C1 [Vincristine] | 12 days | 0/0 | 0/0 | 0/0 | 0/0 | 12 days | 12 days | 0%; 0/0 (10) | 0%; 0/0 (10) | 0%; 0/0 (10) | – | –
des-alanyl-1, serine-125 human interleukin-2 [IL-2] | 2 days | 0/0 | 0/0 | 0/0 | 0/0 | 2 days | 2 days | 2 | 1 | 5% | – | CR/PR day 29: CR ([3]; mouse, in vivo): 0/0; CR/PR day 29: PR ([3]; mouse, in vivo): 0/0; CR/PR day 164: CR ([3]; mouse, in vivo): 1/0; CR/PR day 164: PR ([3]; mouse, in vivo): 1/0; tumor growth / efficacy in words ([3]; mouse, in vivo): significantly inhibited tumor growth; median conditional survival (days to 1000 mm3) ([3]; time for tumor to reach 1000 mm3): 25 days; TGI day 29 ([3]; tumor growth inhibition vs. vehicle, day 29, n = 10): 33.52%; % max BW. change (day, range) [4]: 12(+8 to +14) day 39%; Clinical Observation [4]: BAR; tolerability [5]: well-tolerated
C[C@]12C=CC(=O)C=C1CC[C@@H]1[C@@H]2C(=O)C[C@@]2(C)[C@H]1CC[C@]2(O)C(=O)CO [Prednisone] | 2 days | 1 | 0 | 1 | 0 | 2 days | 2 days | 1 | 0 | 10% | 10%, p > 0.05 | –

— patent US20060251617A1, “Methods for treating lymphomas” (Chiron Corporation, priority 2005, published 2006)
